# Measured values reported in publication PMC5515844, “A new Prenylated Flavonoid induces G0/G1 arrest and apoptosis through p38/JNK MAPK pathways in Human Hepatocellular Carcinoma cells” (Scientific Reports, 2017).
# Legend:
# [1] = tested on: TE-1; experiment: MTT cytotoxicity assay; assay type: cell-based; settings: Homo sapiens, 48 h, mean ± SD
# Protocol: (§1) HepG2 and Hep3B (human hepatoma cells), Bcap37 and MCF-7 (human breast cancer cells), TE-1 (human esophageal cancer cells), A549 (human lung carcinoma cells), U251 and U87 (human glioma cells), were cultured in Dulbecco’s modified Eagle’s medium (DMEM) supplemented with 10% fetal bovine serum (FBS) and 1% penicillin/streptomycin (10000 U/mL penicillin, 10000 μg/ml streptomycin). SH-SY5Y (human neuroblastoma cells), LO2 (human normal liver cell) were grown in RPMI 1640 containing 10% FBS and 100 µg/ml penicillin, 100 µg/ml streptomycin. HepG2, Hep3B, MCF-7, TE-1, A549, U87, U251 and SHSY5Y cells were obtained from the American Type Culture Collection (Manassas, VA, USA). Bcap37 and LO2 cells were purchased from the Cell Bank of Chinese Academy of Sciences (Shanghai, China). All cells were incubated in a humidified atmosphere containing 5% CO2 at 37 °C.
# (§2) Cells seeded in 96-well plates with 5 × 10^3 cells/well were adhered overnight and incubated with vehicle control (DMSO) or diverse concentrations of compounds for 48 h. After treatment, 20 μL of MTT (5 mg/mL) was added to each well and incubated for another 4 h at 37 °C. Then, 150 μL of DMSO/well was appended after removed the supernatant to dissolve the formed purple formazan crystals and the color absorbance was measured at 490 nm using a microplate reader (Molecular Devices, Thermo, CA, USA). The inhibition rate (%) was calculated as (A490(control) − A490(drug groups))/(A490(control) − A490(blank)) × 100 and the value of IC50 (the concentration that caused 50% inhibition of cell viability) was determined using SPSS 20.0. This experiment was measured in triplicate, independently.
# [2] = tested on: U251; experiment: MTT cytotoxicity assay; assay type: cell-based; settings: Homo sapiens, U-251, 48 h, mean ± SD
# Protocol: as §1, §2
# [3] = tested on: Bcap37; experiment: MTT cytotoxicity assay; assay type: cell-based; settings: Homo sapiens, 48 h, mean ± SD
# Protocol: as §1, §2
# [4] = tested on: SH-SY5Y; experiment: MTT cytotoxicity assay; assay type: cell-based; settings: Homo sapiens, 48 h, mean ± SD
# Protocol: as §1, §2
# [5] = tested on: U87; experiment: MTT cytotoxicity assay; assay type: cell-based; settings: Homo sapiens, U-87 MG, 48 h, mean ± SD
# Protocol: as §1, §2
# [6] = Gross evaluation and pathological study in xenograft nude mice; assay type: in vivo, BALB/c nude mice
# Protocol: (§3) All of the animal studies and procedures were conducted in accordance with the approval and guidelines of the Shenyang Pharmaceutical University Institutional Animal Care and Use Committee (permission number: SCXK (Jing) 2014-0004). Male BALB/c nude mice at the age of six weeks were obtained from Beijing HFK Bioscience Co., Ltd (Beijing, China). Hep3B cells (1 × 10^5 cells) were implanted subcutaneously into the right backsides of each nude mouse. After 12 days, when the tumor size reached about 100 mm^3, the mice were randomly divided into three groups (n = 6) and intraperitoneally injected with vehicle control or daphnegiravone D (5 and 10 mg/kg body weight) every two days for two weeks. The body weight and tumor sizes were measured every day, and the tumor volume was determined by caliper measurements and calculated by the formula: 0.5236 × L × W ^2, where L is the long axis and W is the short axis of the tumor. The experiment was terminated when the tumors volume of the control group reached about 3000 mm^3. The mice were sacrificed, and the tumors, hearts, livers, spleens, lungs and kidneys were excised immediately to evaluate the antitumor activity and toxicity of daphnegiravone D.
# Mouse major organs (heart, liver, spleen, lung, kidney) and tumors were isolated and fixed in 10% buffered formalin for 3 days and embedded in paraffin. […]
# [7] = tested on: Hep3B xenografts; experiment: In vivo antitumor activity, nude mouse xenograft model; set-up: species or system BALB/c nude mice; settings: for inhibition rate of the tumor volume: vs vehicle group
# Protocol: as §3
# Mouse major organs (heart, liver, spleen, lung, kidney) and tumors were isolated and fixed in 10% buffered formalin for 3 days and embedded in paraffin. The tissues were sectioned at a thickness of 4 μm, and the obtained organ sections were prepared orderly by dewaxing, staining in hematoxylin and eosin-phloxine solution, then dehydrated and mounted with neutral resin. Subsequently, the tumor paraffin sections were deparaffinized, rehydrated, and subjected to antigen retrieval. Immunostaining was performed by the streptavidin-peroxidase (S-P) method (Ultra-sensitive; MaiXin, Fuzhou, China). The primary antibody was mouse anti-Ki67 monoclonal antibody (Maixin Biotech, Fuzhou, China). The peroxidase reaction was developed with 3,3-diaminobenzidine (Maixin Biotech, Fuzhou, China). Finally, the sections tissue morphology were observed using an OLYMPUS microscope.
# [8] = 5 and 10 mg/kg i.p. every two days for two weeks
structure (smiles),measurement,setting,value
"COc1c(-c2ccc(O)c(CC=C(C)C)c2)oc2c(CC=C(C)C)c(O)cc(O)c2c1=O [Compound 1, daphnegiravone D]",IC50,[1],19.3 ± 2.3 µM
same,IC50,[2],33.4 ± 3.03 µM
same,IC50,[3],28 ± 1.94 µM
same,IC50,[4],39.1 ± 3.67 µM
same,IC50,[5],35.1 ± 3.97 µM
same,"histopathology of heart, liver, spleen, lungs and kidneys","[6]; 5 mg/kg and 10 mg/kg, H&E, vs vehicle control group",no obvious differences
same,body weight of the mice,[6]; [8],did not affect the body weight
same,inhibition rate of the tumor volume,[7]; 5 mg/kg i.p. every two days for two weeks,approximately 35.9%
same,inhibition rate of the tumor volume,[7]; 10 mg/kg i.p. every two days for two weeks,~50.3%
same,tumor volume and tumor weight,[7]; [8],markedly decreased
same,Ki-67 labeling index (proliferation capacity of tumor),"[7]; immunohistochemistry, vs vehicle control",lower proliferation capacity
